Measured values: patent publication US20090099167A1, “Organic compounds” (Novartis Institutes for Biomedical Research, priority 2004, published 2009)

Assays:
human Flt-3 = target: T1, human Flt-3 (Homo sapiens, UniProt P36888); experiment: Flt3 kinase inhibition, GST-Flt-3, 33P incorporation into poly(Glu,Tyr); type: biochemical; conditions: Table 5; read-out: Flt-3, IC50 class
T1 construct: expressing the amino acid region amino acids 563-993 of the cytoplasmic kinase domain of human Flt-3; made in house; host or cells: Sf9 (baculovirus)
T1 sequence (P36888 563-993): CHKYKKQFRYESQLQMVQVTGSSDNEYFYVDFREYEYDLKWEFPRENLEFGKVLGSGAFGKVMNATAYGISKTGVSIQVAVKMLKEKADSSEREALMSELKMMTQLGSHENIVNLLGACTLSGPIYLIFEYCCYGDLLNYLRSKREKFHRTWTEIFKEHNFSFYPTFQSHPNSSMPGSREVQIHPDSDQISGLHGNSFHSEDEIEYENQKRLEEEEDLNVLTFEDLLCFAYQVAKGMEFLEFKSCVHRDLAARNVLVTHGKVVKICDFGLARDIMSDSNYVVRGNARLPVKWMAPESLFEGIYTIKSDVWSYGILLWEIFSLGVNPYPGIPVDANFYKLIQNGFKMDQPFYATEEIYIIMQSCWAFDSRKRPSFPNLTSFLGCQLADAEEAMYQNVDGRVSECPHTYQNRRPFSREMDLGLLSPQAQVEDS
Protocol: (§1) The compounds to be tested are then diluted in culture medium (without FCS, with 0.1% bovine serum albumin) and added to the cells. (Controls comprise medium without test compounds). After two hours' incubation at 37° C., recombinant VEGF is added; the final VEGF concentration is 20 ng/ml). After a further five minutes incubation at 37° C., the cells are washed twice with ice-cold PBS (phosphate-buffered saline) and immediately lysed in 100 μl lysis buffer per well. The lysates are then centrifuged to remove the cell nuclei, and the protein concentrations of the supernatants are determined using a commercial protein assay (BIORAD). The lysates can then either be immediately used or, if necessary, stored at −20° C. A sandwich ELISA is carried out to measure the VEGF-R2 phosphorylation: a monoclonal antibody to VEGF-R2 (for example Mab 1495.12.14; ProQinase, Freiburg, Germany) is immobilized on black ELISA plates (OptiPlate™ HTRF-96 from Packard). The plates are then washed and the remaining free protein-binding sites are saturated with 3% TopBlock® (Juro, Cat. # TB232010) in phosphate buffered saline with Tween 20® (polyoxyethylen(20)-sorbitane monolaurate, ICI/Uniquema) (PBST). The cell lysates (20 μg protein per well) are then incubated in these plates overnight at 4° C. together with an antiphosphotyrosine antibody coupled with alkaline phosphatase (PY20:AP from Zymed). […] The luminescence is measured in a Packard Top Count Microplate Scintillation Counter. The difference between the signal of the positive control (stimulated with VEGF) and that of the negative control (not stimulated with VEGF) corresponds to VEGF-induced VEGF-R2 phosphorylation (=100%). The activity of the tested substances is calculated as percent inhibition of VEGF-induced VEGF-R2 phosphorylation, wherein the concentration of substance that induces half the maximum inhibition is defined as the IC50 (inhibitory dose for 50% inhibition). […] Flt3 kinase inhibition is determined as follows: The baculovirus donor vector pFbacG01 (GIBCO) is used to generate a recombinant baculovirus expressing the amino acid region amino acids 563-993 of the cytoplasmic kinase domain of human Flt-3. The coding sequence for the cytoplasmic domain of Flt-3 is amplified by PCR from human c-DNA libraries (Clontech). The amplified DNA fragments and the pFbacG01 vector are made compatible for ligation by digestion with BamH1 and HindIII. Ligation of these DNA fragments results in the baculovirus donor plasmid Flt-3(1.1). The production of the viruses, the expression of proteins in Sf9 cells and the purification of the GST-fused proteins are performed as follows: Production of virus: Transfer vector (pFbacG01-Flt-3) containing the Flt-3 kinase domain is transfected into the DH10Bac cell line (GIBCO) and the transfected cells are plated on selective agar plates. Colonies without insertion of the fusion sequence into the viral genome (carried by the bacteria) are blue. Single white colonies are picked and viral DNA (bacmid) is isolated from the bacteria by standard plasmid purification procedures. Sf9 or Sf21 cells (American Type Culture Collection) are then transfected in flasks with the viral DNA using Cellfectin reagent. Determination of small scale protein expression in Sf9 cells: Virus containing media is collected from the transfected cell culture and used for infection to increase its titre. Virus containing media obtained after two rounds of infection is used for large-scale protein expression. For large-scale protein expression 100 cm^2 round tissue culture plates are seeded with 5×10^7 cells/plate and infected with 1 mL of virus-containing media (approx. 5 MOIs). After 3 days the cells are scraped off the plate and centrifuged at 500 rpm for 5 min. Cell pellets from 10-20, 100 cm^2 plates, are resuspended in 50 mL of ice-cold lysis buffer (25 mMTris-HCl, pH 7.5, 2 mM EDTA, 1% NP-40, 1 mM DTT, 1 mM PMSF). The cells are stirred on ice for 15 min and then centrifuged at 5000 rpms for 20 min. […]

[1] = target: T2, human VEGF-R2 receptor (KDR) (Homo sapiens, UniProt P35968); experiment: VEGF-induced KDR autophosphorylation in transfected CHO cells, sandwich ELISA; type: cell-based; conditions: Table 5; read-out: KDR, IC50 class
T2 construct: expressed in transfected cells; host or cells: CHO cells
Protocol: as §1

T2 sequence (P35968 20-1356): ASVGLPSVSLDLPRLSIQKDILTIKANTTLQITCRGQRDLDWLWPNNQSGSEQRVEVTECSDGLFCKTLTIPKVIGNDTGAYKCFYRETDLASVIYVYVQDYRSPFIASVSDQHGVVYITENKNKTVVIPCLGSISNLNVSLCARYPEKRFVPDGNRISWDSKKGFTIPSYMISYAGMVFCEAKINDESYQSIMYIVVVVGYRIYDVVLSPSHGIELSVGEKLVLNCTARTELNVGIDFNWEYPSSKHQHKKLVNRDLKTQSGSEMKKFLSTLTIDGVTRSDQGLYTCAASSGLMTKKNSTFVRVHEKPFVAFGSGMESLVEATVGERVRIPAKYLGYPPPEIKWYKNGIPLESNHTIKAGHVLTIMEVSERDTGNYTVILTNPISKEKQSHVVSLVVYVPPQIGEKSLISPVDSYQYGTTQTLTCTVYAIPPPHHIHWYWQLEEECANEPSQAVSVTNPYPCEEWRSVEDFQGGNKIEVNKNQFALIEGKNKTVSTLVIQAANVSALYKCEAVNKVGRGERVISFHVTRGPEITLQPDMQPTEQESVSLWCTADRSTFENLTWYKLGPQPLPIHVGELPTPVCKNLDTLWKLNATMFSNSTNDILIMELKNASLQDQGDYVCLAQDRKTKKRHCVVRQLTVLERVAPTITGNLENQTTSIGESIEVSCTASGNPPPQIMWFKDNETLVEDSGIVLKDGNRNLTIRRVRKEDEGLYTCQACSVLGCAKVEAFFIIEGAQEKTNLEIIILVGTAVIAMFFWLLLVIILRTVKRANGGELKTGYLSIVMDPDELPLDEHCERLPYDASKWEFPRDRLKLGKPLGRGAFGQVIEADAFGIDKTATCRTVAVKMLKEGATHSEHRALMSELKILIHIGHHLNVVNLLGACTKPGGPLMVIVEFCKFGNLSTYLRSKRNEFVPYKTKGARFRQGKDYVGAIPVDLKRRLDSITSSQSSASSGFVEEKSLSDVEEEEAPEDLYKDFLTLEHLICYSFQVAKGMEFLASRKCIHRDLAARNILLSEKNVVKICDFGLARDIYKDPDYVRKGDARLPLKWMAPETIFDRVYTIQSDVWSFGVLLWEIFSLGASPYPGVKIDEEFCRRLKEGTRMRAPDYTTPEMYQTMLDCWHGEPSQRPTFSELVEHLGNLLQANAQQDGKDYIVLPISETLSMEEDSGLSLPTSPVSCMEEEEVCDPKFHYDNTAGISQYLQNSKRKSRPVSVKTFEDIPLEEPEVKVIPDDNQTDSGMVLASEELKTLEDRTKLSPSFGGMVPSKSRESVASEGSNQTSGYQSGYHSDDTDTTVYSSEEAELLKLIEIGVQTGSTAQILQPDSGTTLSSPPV

Compound | IC50 (human Flt-3) | IC50 [1]
Cc1nc2c(-c3cccc(N4CCN(C5CCN(C)CC5)CC4)c3)cnn2c(N)c1-c1cccc(Cl)c1 [Example 81, 6-(3-Chloro-phenyl)-5-methyl-3-{3-[4-(1-methyl-piperidin-4-yl)-piperazin-1-yl]-phenyl}-pyrazolo[1,5-a]pyrimidin-7-ylamine] | > 10 µM | < 1 µM
Cc1nc2c(-c3cccc(N4CC[N+](C)([O-])CC4)c3)cnn2c(N)c1-c1ccc(F)cc1 [Example 106, 6-(4-Fluoro-phenyl)-5-methyl-3-[3-(4-methyl-4-oxy-piperazin-1-yl)-phenyl]-pyrazolo[1,5-a]pyrimidin-7-ylamine] | > 10 µM | > 10 µM
COc1ccc(-c2cnn3c(N)c(-c4cccc(Cl)c4)c(C)nc23)cc1 [Example 88, 6-(3-Chloro-phenyl)-3-(4-methoxy-phenyl)-5-methyl-pyrazolo[1,5-a]pyrimidin-7-ylamine] | > 10 µM | 1 to 10 µM
Cc1nc2c(-c3cccc(N4CCOCC4)c3)cnn2c(N)c1-c1cccc(Cl)c1 [Example 87, 6-(3-Chloro-phenyl)-5-methyl-3-(3-morpholin-4-yl-phenyl)-pyrazolo[1,5-a]pyrimidin-7-ylamine] | > 10 µM | 1 to 10 µM
Cc1nc2c(-c3cccc(N4CCN(C)CC4)c3)cnn2c(N)c1-c1cccc(Br)c1 [Example 84, 6-(3-Bromo-phenyl)-5-methyl-3-[3-(4-methyl-piperazin-1-yl)-phenyl]-pyrazolo[1,5-a]pyrimidin-7-ylamine] | > 10 µM | 1 to 10 µM
COc1ccc(-c2cnn3c(N)c(-c4ccc(F)c(Cl)c4)c(C)nc23)cc1 [Example 95, 6-(3-Chloro-4-fluoro-phenyl)-3-(4-methoxy-phenyl)-5-methyl-pyrazolo[1,5-a]pyrimidin-7-ylamine] | > 10 µM | > 10 µM
Cc1nc2c(-c3cccc(N4CCN(C)CC4)c3)cnn2c(N)c1-c1ccc(F)cc1 [Example 80, 6-(4-Fluoro-phenyl)-5-methyl-3-[3-(4-methyl-piperazin-1-yl)-phenyl]-pyrazolo[1,5-a]pyrimidin-7-ylamine] | 1 to 10 µM | 1 to 10 µM
COc1ccc(-c2cnn3c(N)c(-c4cccc(Cl)c4)c(C)nc23)cc1OC [Example 93, 6-(3-Chloro-phenyl)-3-(3,4-dimethoxy-phenyl)-5-methyl-pyrazolo[1,5-a]pyrimidin-7-ylamine] | > 10 µM | > 10 µM
Cc1nc2c(-c3cccc(N4CCN(CCO)CC4)c3)cnn2c(N)c1-c1ccc(F)cc1 [Example 97, 2-(4-{3-[7-Amino-6-(4-fluoro-phenyl)-5-methyl-pyrazolo[1,5-a]pyrimidin-3-yl]-phenyl}-piperazin-1-yl)-ethanol] | > 10 µM | 1 to 10 µM
Cc1nc2c(-c3cccc(N4CCN(CCO)CC4)c3)cnn2c(N)c1-c1ccc(F)c(F)c1 [Example 101, 2-(4-{3-[7-Amino-6-(3,4-difluoro-phenyl)-5-methyl-pyrazolo[1,5-a]pyrimidin-3-yl]-phenyl}-piperazin-1-yl)-ethanol] | > 10 µM | 1 to 10 µM
Cc1nc2c(-c3cccc(N4CCN(C)CC4)c3)cnn2c(N)c1-c1cccc(Cl)c1 [Example 72, 6-(3-Chloro-phenyl)-5-methyl-3-[3-(4-methyl-piperazin-1-yl)-phenyl]-pyrazolo[1,5-a]pyrimidin-7-ylamine] | > 10 µM | < 1 µM
CN1CCN(c2cccc(-c3cnn4c(N)c(-c5ccccc5Cl)cnc34)c2)CC1 [Example 78, 6-(2-Chloro-phenyl)-3-[3-(4-methyl-piperazin-1-yl)-phenyl]-pyrazolo[1,5-a]pyrimidin-7-ylamine] | < 1 µM | < 1 µM
